Test results from ChEMBL document CHEMBL3232840, “Anti-proliferative activity of 2,6-dichloro-9- or 7-(ethoxycarbonylmethyl)-9H- or 7H-purines against several human solid tumour cell lines” (Eur J Med Chem, 2014).

How the values were obtained:
MCF7 [1] = experiment: Antiproliferative activity against human MCF7 cells after 3 days by sulforhodamine-B colorimetric assay; assay type: functional, cell-based; settings: MCF7, 72 h
HCT-116 [2] = experiment: Antiproliferative activity against human HCT116 cells after 3 days by sulforhodamine-B colorimetric assay; assay type: functional, cell-based; settings: HCT-116, 72 h
A-375 [3] = experiment: Antiproliferative activity against human A375 cells after 3 days by sulforhodamine-B colorimetric assay; assay type: functional, cell-based; settings: A-375, 72 h
[4] = Antiproliferative activity against human G361 cells after 3 days by sulforhodamine-B colorimetric assay; assay type: functional, cell-based; settings: G-361, 72 h
MCF7 [5] = experiment: Cell cycle arrest human MCF7 cells assessed as accumulation at G0/G1 phase at IC50 after 24 hrs by flow cytometry (reference value: 34.58 +/- 0.09 % ); assay type: functional
MCF7 [6] = experiment: Cell cycle arrest human MCF7 cells assessed as accumulation at S phase at IC50 after 24 hrs by flow cytometry (reference value: 14.50 +/- 1.06 % ); assay type: functional
MCF7 [7] = experiment: Cell cycle arrest human MCF7 cells assessed as accumulation at G2/M phase at IC50 after 24 hrs by flow cytometry (reference value: 50.91 +/- 1.15 % ); assay type: functional
HCT-116 [8] = experiment: Cell cycle arrest human HCT116 cells assessed as accumulation at G0/G1 phase at IC50 after 24 hrs by flow cytometry (reference value: 44.70 +/- 0.38 % ); assay type: functional
HCT-116 [9] = experiment: Cell cycle arrest human HCT116 cells assessed as accumulation at S phase at IC50 after 24 hrs by flow cytometry (reference value: 38.26 +/- 1.40 % ); assay type: functional
HCT-116 [10] = experiment: Cell cycle arrest human HCT116 cells assessed as accumulation at G2/M phase at IC50 after 24 hrs by flow cytometry (reference value: 17.02 +/- 1.40 % ); assay type: functional
A-375 [11] = experiment: Cell cycle arrest human A375 cells assessed as accumulation at G0/G1 phase at IC50 after 24 hrs by flow cytometry (reference value: 57.97 +/- 0.93 % ); assay type: functional
A-375 [12] = experiment: Cell cycle arrest human A375 cells assessed as accumulation at S phase at IC50 after 24 hrs by flow cytometry (reference value: 29.60 +/- 0.78 % ); assay type: functional
A-375 [13] = experiment: Cell cycle arrest human A375 cells assessed as accumulation at G2/M phase at IC50 after 24 hrs by flow cytometry (reference value: 12.42 +/- 0.70 % ); assay type: functional
MCF7 [14] = experiment: Induction of apoptosis in human MCF7 cells at IC50 after 24 hrs by annexin V-FITC/PI-based flow cytometry (reference value: 10.80 +/- 0.85 % ); assay type: functional
HCT-116 [15] = experiment: Induction of apoptosis in human HCT116 cells at IC50 after 24 hrs by annexin V-FITC/PI-based flow cytometry (reference value: 7.27 +/- 1.57 % ); assay type: functional
A-375 [16] = experiment: Induction of apoptosis in human A375 cells at IC50 after 24 hrs by annexin V-FITC/PI-based flow cytometry (reference value: 6.83 +/- 0.40 % ); assay type: functional

| IC50 (MCF7 [1]) [µM] | IC50 (HCT-116 [2]) [µM] | IC50 (A-375 [3]) [µM] | Structure (SMILES) | IC50 [4] [µM] | Activity (MCF7 [5]) [%] | Activity (MCF7 [6]) [%] | Activity (MCF7 [7]) [%] | Activity (HCT-116 [8]) [%] | Activity (HCT-116 [9]) [%] | Activity (HCT-116 [10]) [%] | Activity (A-375 [11]) [%] | Activity (A-375 [12]) [%] | Activity (A-375 [13]) [%] | Activity (MCF7 [14]) [%] | Activity (HCT-116 [15]) [%] | Activity (A-375 [16]) [%] |
| --- | --- | --- | --- | --- | --- | --- | --- | --- | --- | --- | --- | --- | --- | --- | --- | --- |
| 49.8 | 68 | 14.5 | CCOC(=O)Cn1cnc2ncnc(Cl)c21 | 21.4 |  |  |  |  |  |  |  |  |  |  |  |  |
| 20.2 | 55.7 | 26.7 | CCOC(=O)Cn1cnc2ncnc(Br)c21 | 18.3 |  |  |  |  |  |  |  |  |  |  |  |  |
| 30.5 | 22.6 | 50.9 | CCOC(=O)Cn1c(=O)[nH]cc(F)c1=O | 25.4 |  |  |  |  |  |  |  |  |  |  |  |  |
| 14.1 | 23.5 | 13.4 | CCOC(=O)Cn1cnc2c(Br)ncnc21 | 15.8 |  |  |  |  |  |  |  |  |  |  |  |  |
| 3.93 | 6.2 | 1.18 | CCOC(=O)Cn1cnc2c(Cl)nc(Cl)nc21 | 3.06 | 28.17 | 15.39 | 54.63 | 45.93 | 36.75 | 17.31 | 58.48 | 28.78 | 12.73 | 20.53 | 20.2 | 35.37 |
| 5.63 | 6.36 | 4.98 | CCOC(=O)Cn1cnc2nc(Cl)nc(Cl)c21 | 5.67 | 34.54 | 18.27 | 47.19 | 33.58 | 37.93 | 28.47 | 70.55 | 20.1 | 9.34 | 24.1 | 17.03 | 27.13 |
| 25.2 | 24.6 | 38.4 | CCOC(=O)Cn1cc(F)c(=O)[nH]c1=O | 29 |  |  |  |  |  |  |  |  |  |  |  |  |
| 35.1 | 5.27 | 18.9 | CCOC(=O)Cn1cnc2c(Cl)ncnc21 | 21.4 |  |  |  |  |  |  |  |  |  |  |  |  |
